In US6806269B1, “2-Amino-benzoxazinones for the treatment of herpes simplex virus” (G. D. Searle & Cop, priority 1999, dated 2004):

Tests used:
HSV-1 = test: Antiviral assay: plaque reduction assay, HSV-1 in vero cells; assay type: cell-based, HSV-1 (vero cells, African green monkey kidney cell); conditions: Human alphaherpesvirus 1, Vero, 72 h, read-out: ANTIVIRUS EC50
Description: These complimentary assays tested the ability of a compound to inhibit the production of new virus and the toxicity of the compound to the host cells. It was important that both assays be performed simultaneously in order to compare the results directly since toxicity may indirectly reduce viral replication.
The antiviral assay was estimated by plaque reduction assay performed by following methods. 1×10^5 of vero cells (African green monkey kidney cell) in 48-well plates were over-night cultured and the medium of this culture was replaced with 200 μl of 2% FBS DMEM containing 2× the desired final cordon of test compounds or no compound as control. The cultures were added 50 μl of 2% FBS DMEM containing with about 50 plaque forming units of HSV-1and next 250 μl of 2% FBS DMEM containing 1% methylcellulose. These infected cultures were incubated at 37° C., 5% CO2 for 3 days until plaques was visible. The cells were fixed and stained simultaneously with 0.025% crystalviolet in 5% formalin solution and plaque were counted. The concentration of test compound which conferred 50% inhibition of plaque formation compared to no compound control was interpolated from the observed data and defined as IC50.

[1] = biological target: T1, Human leukocyte elastase (HLE) (Homo sapiens, UniProt P08246); test: Human leukocyte elastase assay; assay type: biochemical; conditions: 50 μM compound; 30 minutes pre-incubation
T1 construct: purchased CALBIOCHEM
T1 sequence (P08246 30-267): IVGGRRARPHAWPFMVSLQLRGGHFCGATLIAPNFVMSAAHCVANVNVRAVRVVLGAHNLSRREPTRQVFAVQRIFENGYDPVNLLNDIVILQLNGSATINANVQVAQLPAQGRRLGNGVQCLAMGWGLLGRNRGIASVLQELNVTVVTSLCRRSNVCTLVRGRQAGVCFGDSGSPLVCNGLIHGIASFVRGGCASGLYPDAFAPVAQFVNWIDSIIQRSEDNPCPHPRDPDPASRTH
Description: Human Leukocyte Elastase Assay
Human leukocyte elastase (HLE) (CALBIOCHEM) was dissolved in saline at 1 mg/ml and further diluted 1/10 in assay buffer (0.2 M Tris, pH 8.0) before use.
0.75 μl of test compound in DMF (or DMF alone), 50 μl of assay buffer and 50 μl of enzyme were added to 96 well plate, mixed and pre-incubated for 30 minutes at ambient temperature. Reaction was initiated by addition of 50 μl of 2.5 mM methoxysuccinyl-Ala-Ala-Pro-Val-p-nitroanilide (Sigma; 25 mM in DMSO diluted 1/10 in assay buffer before use). The increase in absorbance at 405 nm was monitored for 3 min. with BIO-RAD model 3550 microplate reader.

[2] = biological target: T2, Bovine pancreas α-chymotripsin (Bos taurus, UniProt P00766); test: Chymotripsin assay; assay type: biochemical; conditions: 50 μM compound; 30 minutes pre-incubation; read-out: INHIBITION AT 50 μM CHYMOTRYPSIN (%)
T2 construct: purchased Sigma type II; host or cells: bovine pancreas
Description: The chymotripsin assay was modified from the method of Delmar, et al. (Anal. Biochem. 99, 316-320 (1979)). Bovine pancreas α-chymotripsin(type II, Sigma) was dissolved in 0.001 N HCl at 1 mg/ml and further diluted 1/1000 in assay buffer (0.1 M Tris, pH 7.8 containing 0.1 M CaCl2) before use. 0.75 μl of test compound in DMF (or DMF alone), 50 μl of assay buffer and 50 μl of enzyme were added to 96 wells plates, mixed and pre-incubated for 30 minutes at ambient temperature. Reaction was initiated by addition of 50 μl of 0.2 mM N-succinyl-Ala-Ala-Pro-Phe-p-nitroanilide (Sigma; 2 mM in DMSO diluted 1/10 in assay buffer before use). The increase in absorbance at 405 nm was monitored for 3 minutes with BIO-RAD model 3550 microplate-reader.

[3] = biological target: T3, HSV-1 protease (assemblin) (Human herpesvirus 1, UniProt P10210); test: Enzymatic assay for HSV-1 protease (assemblin) inhibition (FP assay / HPLC assay); assay type: biochemical; conditions: recombinant HSV-1 protease; 30 minute pre-incubation at room temperature; FP or HPLC format not stated; read-out: ENZYME IC50
T3 construct: encoding residues 1-288 of HSV-1 UL26 open reading frame and 32 heterologous amino acid; 6xHis (N); made in house
T3 sequence (P10210 1-288): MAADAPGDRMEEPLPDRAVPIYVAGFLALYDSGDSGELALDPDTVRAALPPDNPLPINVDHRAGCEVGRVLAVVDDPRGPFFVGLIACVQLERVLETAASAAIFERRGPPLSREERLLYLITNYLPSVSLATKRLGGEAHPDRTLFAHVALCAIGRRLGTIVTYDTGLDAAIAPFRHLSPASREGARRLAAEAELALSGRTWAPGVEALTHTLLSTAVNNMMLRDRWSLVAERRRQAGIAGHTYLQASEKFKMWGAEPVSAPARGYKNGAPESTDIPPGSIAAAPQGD
Description: Enzymatic Assay for HSV-1 Protease (Assemblin) Inhibition
Assemblin protease activity was determined using fluorescence polarization (FP). The fluorescent substrate was biotin-gamma-aminobutyrate -[…]-DTAF, based on the HSV-1release cleavage site. […] A change in molecular size of fluorescent substrate molecule, which was increased using avidin as a reaction stop reagent, allowed cleavage to be measured by FP. Potential protease inhibitors were dissolved in DMF and then diluted 5-fold in assay buffer. […] The enzyme was diluted to 21.3 ug/mL in assay buffer (1M NaCitrate, 50 mM NaPhosphate, pH 7.4, 100mM NaCl, 20% glycerol, 2 mM TECP) and 48.5 uL were added to each well. Following a 30 minute incubation at room temperature, 10 uL of 62.5 ug/mL substrate were added. After about 90 minute incubation at room temperature, 50 uL of 2 mg/mL avidin in phosphate buffer (50 mM Naphosphate, 100 mM NaCl, pH 7.4) were added to each well. The plates were read by a fluorescence polarization plate reader. Inhibitor potency was determined by comparison with incubations lacking inhibitor.
Assays were performed with the peptide substrate H-His-Thr-Tyr-Leu-Gln-Ala-Ser-Glu-Lys-Phe-Lys-Met-Trp-Gly-NH2 (Bachem). This substrate is a HSV-1-amide UL26 Open Reading Frame (242-255) and is derived from the release site of HSV-1 protease. HSV-1protease cleaves between alanine and serine. The product […] was quantified on HPLC using fluorescence detection of tryptophan residue. Enzyme was diluted to 4.3 ug/mL in assay buffer (1 M NaCitrate, 50 mM NaPhosphate, pH 7.3, 100 mM NaCl, 20% glycerol, 2 mM TCEP) and 48.5 uL were added to the tubes. Potential protease inhibitors were dissolved in DMF and then diluted 10-fold in assay buffer. 6.5 uL of inhibitor solution were added to each tube. Following a 30-minute incubation at room temperature, 10 uL of substrate in phosphate buffer (50 mM Naphosphate, 100 mM NaCl, pH 7.4) were added to all tubes. The final concentration of the substrate in the reaction mixtures was 10 uM. After a 15-minute incubation at room temperature, assays were quenched using 50 uL of 50% TCA. Inhibitor potency was determined by comparison with incubations lacking inhibitor, which under these conditions gave about 20% cleavage of substrate.
Recombinant HSV-1 Protease
HSV-1 protease was purified from baculovirus expressing a DNA construction encoding residues 1-288 of HSV-1 UL26 open reading frame and 32 heterologous amino acid. The construction also encoded six additional histidine residues at the amino terminus of the protease. These additional histidine residues provided an affinity ligand by which the protein was purified using Ni-NTA agarose gel (Qiagen). The purified protease was stored in stock solution (20 mM HEPES buffer, pH 8.5, containing 20% (v/v) glycerol). This stock was diluted with assay buffer to adequate concentration of enzymatic assay.
A specific substrate was synthesized based on the cleavage specificity of HSV-1 protease at the “release site” of the assembly protein (DiIanni, C. L., et al., J. Biol. Chem. 268, 2048, (1993)). The assembly protein release site has the sequence, HTYLQA*SEKFKMWG. The substrate used was biotin-gamma -aminobutyrate-HTYLQA*SERFRIK-DTAF which was prepared by standard peptide synthetic methods such as that described in Bodansky and Bodansky, “The Practice of Peptide Synthesis” (1984), and was stored as a stock solution at 2.5 mg/mL in DMF. This was diluted to 62.5 ug/mL with phosphate buffer (50 mM Naphosphate, […], pH 7.4) just before use.
The substrate was HSV-1-amide UL 26 Open Reading Frame (242-255), obtained from Bachem (Product No. M-2160).
An assay buffer (1 M NaCitrate, 50 mM NaPhosphate, pH 7.4, 100 mM NaCl, 20% glycerol, 2 mM TCEP) was used to dilute stock solutions of enzyme and inhibitors.

| SMILES | EC50 (HSV-1) [µM] | inhibition at 50 µM [1] [%] | inhibition at 50 µM [2] [%] | IC50 [3] [µM] |
| --- | --- | --- | --- | --- |
| Cc1c(NC(=O)OC(C)(C)C)ccc2nc(N(CCC#N)C3CC3)oc(=O)c12 [Compound 13, 6-[[(1,1-Dimethylethoxy)carbonyl]amino]-5-methyl-2-[(2-cyanoethyl)-(cyclopropyl)amino]-4H-3,1-benzoxazin-4-one] | 7.6 | 0 | 2.2 | 3.9 |
| Cc1c(NC(=O)OC(C)(C)C)ccc2nc(N(C)Cc3ccccc3)oc(=O)c12 [Compound 1, 6-[[(1,1-Dimethylethoxy)carbonyl]amino]-5-methyl-2-[methyl(phenylmethyl)amino]-4H-3,1-benzoxazin-4-one] | 1.1 | 32 | 13 | 0.6 |
| Cc1c(NC(=O)OC(C)(C)C)ccc2nc(N(C)Cc3ccc(N(C)C)cc3)oc(=O)c12 [Compound 4, 6-[[(1,1-Dimethylethoxy)carbonyl]amino]-5-methyl-2-[[[4-(dimethylamino)phenyl]methyl]methylamino]-4H-3,1-benzoxazin-4-one] | 0.05 | 0 | 0 | 1.3 |
| Cc1c(NC(=O)OC(C)(C)C)ccc2nc(N(C)Cc3ccccn3)oc(=O)c12 [Compound 18, 6-[[(1-Dimethylethoxy)carbonyl]amino]-5-methyl-2-[methyl(2-pyridylmethyl)-amino]-4H-3,1-benzoxazin-4-one] | 15.1 | 28.7 | 0 | 1.5 |
| Cc1c(NC(=O)OC(C)(C)C)ccc2nc(N3CC=CCC3)oc(=O)c12 [Compound 8, 6-[[(1,1-Dimethylethoxy)carbonyl]amino]-5-methyl-2-[1-(1,2,3,6-tetrahydro-pyridyl)]-4H-3,1-benzoxazin-4-one] | 3.3 | 0 | 0 | 5 |
| Cc1c(NC(=O)c2c(F)cc(F)cc2F)ccc2nc(N(C(C)C)C(C)C)oc(=O)c12 [Compound 12, 6-[(2,4,6-Trifluorobenzoyl)amino]-5-methyl-2(diisopropylamino)-4H-3,1-benzoxazine-4-one] | 6.8 | 13.4 | 22.4 | 6.3 |
| Cc1c(NC(=O)OC(C)(C)C)ccc2nc(N3CCCC4CCCCC43)oc(=O)c12 (centres unmarked) [Compound 11, 6-[[(1,1-Dimethylethoxy)carbonyl]amino]-5-methyl-2-(decahydroquinolyl)-4H-3,1benzoxazin-4-one] | 2.8 | 0 | 0 | 5.5 |
| Cc1cccc2nc(N(C)Cc3ccccn3)oc(=O)c12 [CC3, reference compound] | 48.9 | 100 | 100 | 3.2 |
